Source: ChEMBL document CHEMBL1201862, “PubChem BioAssay data set” (2004)
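Five compound concentrations were applied to cells in 96-well plates for 48 hours; endpoints were derived by simple linear interpolation of the resulting dose-response curve. Abbreviation: GI50, concentration required for 50% inhibition of growth.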 Calls of active or inactive are those of the source. Rule as the data show it: active = GI50 up to about 1.1 µM and inactive = higher.

How the values were obtained:
Test in all cases: NCI tumour cell line growth inhibition, 48 h
[1] = system: PC-3
[2] = system: UACC-257
[3] = system: CCRF-CEM
[4] = system: OVCAR-4
[5] = system: ACHN
[6] = system: OVCAR-3
[7] = system: MDA-MB-435
[8] = system: HOP-62
[9] = system: SN12C
[10] = system: OVCAR-8
[11] = system: MOLT-4
[12] = system: DU-145
[13] = system: SNB-19
[14] = system: SW-620
[15] = system: SF-268
[16] = system: Malme-3M
[17] = system: HL-60
[18] = system: SK-MEL-28
[19] = system: HT-29
[20] = system: RPMI-8226
[21] = system: UACC-62
[22] = system: NCI-H522
[23] = system: U-251
[24] = system: K562
[25] = system: RXF 393
[26] = system: MDA-MB-231
[27] = system: BT-549
[28] = system: SR
[29] = system: NCI-H226
[30] = system: 786-0
[31] = system: A498
[32] = system: SK-MEL-2
[33] = system: HCT-15
[34] = system: NCI-H23
[35] = system: KM12
[36] = system: MCF7
[37] = system: M14
[38] = system: T47D
[39] = system: TK-10
[40] = system: UO-31
[41] = system: SK-OV-3
[42] = system: HCT-116
[43] = system: A549
[44] = system: SF-295
[45] = system: COLO 205
[46] = system: OVCAR-5
[47] = system: CAKI-1
[48] = system: IGROV-1
[49] = system: Hs-578T
[50] = system: EKVX
[51] = system: MDA-N
[52] = system: SNB-75
[53] = system: SK-MEL-5
[54] = system: NCI/ADR-RES
[55] = system: HCC 2998
[56] = system: SF-539
[57] = system: HOP-92
[58] = system: NCI-H460
[59] = system: LOX IMVI

Cc1cc(C(=O)CCCCOc2ccc(C3=NCCO3)cc2)c(C)n1C
GI50 [1]: 19.9 µM (inactive) | GI50 [2]: 3.98 µM (inactive) | GI50 [3]: 20.6 µM (inactive) | GI50 [4]: 36.5 µM (inactive) | GI50 [5]: 35.4 µM (inactive) | GI50 [6]: 38.8 µM (inactive) | GI50 [7]: 24.7 µM (inactive) | GI50 [8]: 52.7 µM (inactive) | GI50 [9]: 56.5 µM (inactive) | GI50 [10]: 33.2 µM (inactive) | GI50 [11]: 14.7 µM (inactive) | GI50 [12]: 24.3 µM (inactive) | GI50 [13]: 25.1 µM (inactive) | GI50 [14]: 33.2 µM (inactive) | GI50 [15]: 52.1 µM (inactive) | GI50 [16]: 35.3 µM (inactive) | GI50 [17]: 0.0883 µM (active) | GI50 [18]: 25.4 µM (inactive) | GI50 [19]: 39.1 µM (inactive) | GI50 [20]: 37.3 µM (inactive) | GI50 [21]: > 10 µM (inactive) | GI50 [22]: 50.7 µM (inactive) | GI50 [23]: 31.3 µM (inactive) | GI50 [24]: 39.2 µM (inactive) | GI50 [25]: 13.2 µM (inactive) | GI50 [26]: > 100 µM (inactive) | GI50 [27]: 33.3 µM (inactive) | GI50 [28]: 29.4 µM (inactive) | GI50 [29]: 29.3 µM (inactive) | GI50 [30]: 38.6 µM (inactive) | GI50 [31]: 34.6 µM (inactive) | GI50 [32]: 28.7 µM (inactive) | GI50 [33]: 38.6 µM | GI50 [34]: 41.1 µM (inactive) | GI50 [35]: 38.5 µM (inactive) | GI50 [36]: 33.3 µM (inactive) | GI50 [37]: 37.8 µM (inactive) | GI50 [38]: 23 µM (inactive) | GI50 [39]: 44.9 µM (inactive) | GI50 [40]: 39.9 µM (inactive) | GI50 [41]: 49.7 µM (inactive) | GI50 [42]: 39.9 µM (inactive) | GI50 [43]: > 10 µM (inactive) | GI50 [44]: 34.4 µM (inactive) | GI50 [45]: 52.4 µM (inactive) | GI50 [46]: 71.6 µM (inactive) | GI50 [47]: 37.2 µM (inactive) | GI50 [48]: 37.2 µM (inactive) | GI50 [49]: 98.2 µM (inactive) | GI50 [50]: 35.8 µM (inactive) | GI50 [51]: 28.1 µM (inactive) | GI50 [52]: 21 µM (inactive) | GI50 [53]: 15.7 µM (inactive) | GI50 [54]: 26.7 µM (inactive)

CC(=O)Oc1ccc2c(c1)[nH]c1c3ccc(OC(C)=O)cc3oc(=O)c21
GI50 [1]: 24.5 µM (inactive) | GI50 [2]: 43.2 µM (inactive) | GI50 [3]: 19.3 µM (inactive) | GI50 [4]: 42.4 µM (inactive) | GI50 [5]: 27 µM (inactive) | GI50 [55]: 26.5 µM (inactive) | GI50 [6]: 24.8 µM (inactive) | GI50 [7]: 27.2 µM (inactive) | GI50 [8]: 29.3 µM (inactive) | GI50 [9]: 30.5 µM (inactive) | GI50 [10]: 35.4 µM (inactive) | GI50 [11]: 14.2 µM (inactive) | GI50 [12]: 33.3 µM (inactive) | GI50 [13]: 23.9 µM (inactive) | GI50 [14]: 25 µM (inactive) | GI50 [15]: 26.9 µM (inactive) | GI50 [16]: 32.8 µM (inactive) | GI50 [18]: 38 µM (inactive) | GI50 [19]: 34.2 µM (inactive) | GI50 [21]: 28.1 µM (inactive) | GI50 [22]: 25.5 µM (inactive) | GI50 [23]: 30.5 µM (inactive) | GI50 [24]: 26.5 µM (inactive) | GI50 [25]: 26.7 µM (inactive) | GI50 [26]: 29.2 µM (inactive) | GI50 [27]: 23.9 µM (inactive) | GI50 [28]: 22.8 µM (inactive) | GI50 [29]: 21.8 µM (inactive) | GI50 [30]: 48 µM (inactive) | GI50 [33]: 37 µM | GI50 [34]: 36.1 µM (inactive) | GI50 [35]: 29.1 µM (inactive) | GI50 [36]: 24.9 µM (inactive) | GI50 [37]: 30.5 µM (inactive) | GI50 [38]: 20.4 µM (inactive) | GI50 [39]: 49.9 µM (inactive) | GI50 [40]: 27.8 µM (inactive) | GI50 [41]: 26 µM (inactive) | GI50 [56]: 29.9 µM (inactive) | GI50 [42]: 23.3 µM (inactive) | GI50 [43]: 56.9 µM (inactive) | GI50 [44]: 44.1 µM (inactive) | GI50 [45]: 30.7 µM (inactive) | GI50 [46]: > 100 µM (inactive) | GI50 [47]: 52.4 µM (inactive) | GI50 [48]: 39 µM (inactive) | GI50 [49]: 31.3 µM (inactive) | GI50 [50]: 34.7 µM (inactive) | GI50 [57]: 61.1 µM (inactive) | GI50 [51]: 33.3 µM (inactive) | GI50 [52]: 51.6 µM (inactive) | GI50 [58]: 22.6 µM (inactive) | GI50 [53]: 15.3 µM (inactive) | GI50 [54]: > 100 µM (inactive)

CCCC(=O)NC(Nc1cc(C)ccn1)(C(=O)OCC)C(F)(F)F (stereo not given)
GI50 [1]: > 100 µM (inactive) | GI50 [2]: > 100 µM (inactive) | GI50 [3]: > 100 µM (inactive) | GI50 [4]: > 100 µM (inactive) | GI50 [5]: > 100 µM (inactive) | GI50 [55]: > 100 µM (inactive) | GI50 [6]: > 100 µM (inactive) | GI50 [7]: > 100 µM (inactive) | GI50 [8]: > 100 µM (inactive) | GI50 [9]: > 100 µM (inactive) | GI50 [10]: > 100 µM (inactive) | GI50 [11]: > 100 µM (inactive) | GI50 [12]: > 100 µM (inactive) | GI50 [13]: > 100 µM (inactive) | GI50 [14]: > 100 µM (inactive) | GI50 [15]: > 100 µM (inactive) | GI50 [59]: > 100 µM (inactive) | GI50 [16]: > 100 µM (inactive) | GI50 [17]: > 100 µM (inactive) | GI50 [18]: > 100 µM (inactive) | GI50 [19]: > 100 µM (inactive) | GI50 [20]: > 100 µM (inactive) | GI50 [21]: > 100 µM (inactive) | GI50 [22]: > 100 µM (inactive) | GI50 [23]: > 100 µM (inactive) | GI50 [24]: > 100 µM (inactive) | GI50 [25]: > 100 µM (inactive) | GI50 [26]: > 100 µM (inactive) | GI50 [27]: > 100 µM (inactive) | GI50 [28]: > 100 µM (inactive) | GI50 [29]: > 100 µM (inactive) | GI50 [30]: > 100 µM (inactive) | GI50 [32]: > 100 µM (inactive) | GI50 [33]: > 100 µM | GI50 [34]: > 100 µM (inactive) | GI50 [35]: > 100 µM (inactive) | GI50 [36]: > 100 µM (inactive) | GI50 [37]: > 100 µM (inactive) | GI50 [38]: > 100 µM (inactive) | GI50 [39]: > 100 µM (inactive) | GI50 [40]: > 100 µM (inactive) | GI50 [41]: > 100 µM (inactive) | GI50 [56]: > 100 µM (inactive) | GI50 [42]: > 100 µM (inactive) | GI50 [43]: > 100 µM (inactive) | GI50 [44]: > 100 µM (inactive) | GI50 [45]: > 100 µM (inactive) | GI50 [46]: > 100 µM (inactive) | GI50 [47]: > 100 µM (inactive) | GI50 [48]: > 100 µM (inactive) | GI50 [49]: > 100 µM (inactive) | GI50 [50]: > 100 µM (inactive) | GI50 [57]: 91 µM (inactive) | GI50 [51]: > 100 µM (inactive) | GI50 [52]: > 100 µM (inactive) | GI50 [53]: > 100 µM (inactive) | GI50 [54]: > 100 µM (inactive)
